Experiment [1] deals with B. elkani SEMIA 587 and B. elkani SEMIA 5019. The experiment can be described thus: Liquid inoculant survivability in the presence of insecticide containing benzyl hemi-formal (Example 2). Format: cell-based, Bradyrhizobium elkani. The conditions noted are these: Table 4. Here is the method:
The general protocol described in Example 1 was modified to process larger samples. A commercial insecticide containing benzyl hemi-formal was tested at concentrations that would emulate the recommended doses both for the inoculants and the insecticide.
(§1) Sterile 250 ml erlenmeyers containing sterile magnetic stirrers were used instead of test tubes. The commercial insecticide was transferred to a series of erlenmeyers and the stated amounts of microbial stabilizing compounds (yeast extract and soy meal peptone from Merck and tryptophan from Ajinomoto) were premixed at 250 rpm for 6 hours.
To each of the corresponding erlenmeyer flasks, 30 ml of the inoculants (as described in example 1) was added, mixed, and samples were obtained immediately and at 2 hr intervals. Samples were processed as described in Example 1.

Experiment [2] concerns B. japonicum SEMIA 5079 and B. japonicum SEMIA 5080. The experiment can be described thus: Liquid inoculant survivability in the presence of insecticide containing benzyl hemi-formal (Example 5). The experiment is classed as cell-based, Bradyrhizobium japonicum. Conditions: Table 10. As to the method: The general protocol described in Example 4 was modified to process larger samples. A commercial insecticide containing benzyl hemi-formal was tested at concentrations that would emulate the recommended doses both for the inoculants and the insecticide.
as §1
To each of the corresponding erlenmeyer flasks, 30 ml of inoculant (as described in example 4) was added, mixed, and samples were obtained immediately and at 2 hr intervals. Samples were processed as described in Example 4.

Experiment [3] has as its system B. elkani SEMIA 587 and B. elkani SEMIA 5019. Put plainly: Liquid inoculant survivability in the presence of benzyl hemi-formal (Example 1). The experiment is classed as cell-based, Bradyrhizobium elkani. The conditions noted are these: at the concentration tested; Table 2. Here is the method:
(§2) The activity of two microbially stabilizing compounds, yeast extract and albumin, were tested for reducing the effects of the preservative benzyl hemi-formal (at a concentration reflecting that provided by the current recommendation for a commercial insecticide that includes that preservative).
(§3) Using conventional aseptic techniques, 10 ml of a commercial liquid inoculant containing B. elkani SEMIA 587 and B. elkani SEMIA 5019 (Nitragin Optimize II, commercially available from Novozymes) was transferred to a series of sterile test tubes, to which 0.7 ml of a 2% solution containing benzyl hemi-formal was added and, in the corresponding tubes, 0.3 g of Yeast extract (commercially available from Merck) or 0.3 g Albumin (commercially available from SIGMA) were incorporated. A control of bacterial survival consisting of the inoculants without a microbial stabilizing compound was tested for comparison.
(§4) The tubes were mixed using a vortex agitator, transferred to a 30° C. orbital shaker. After 20 minutes incubation (Time 0), 0.1 ml samples were taken, and conventionally diluted 1/10 in a series of tubes containing 0.9 ml of sterile saline solution (0.85% NaCl in distilled water). […] Colonies were counted after seven days incubation. The number of colony forming units per ml (CFU ml^−1) was calculated taking into account the plated dilutions and the plated volume. […]

Experiment [4] deals with B. japonicum SEMIA 5079 and B. japonicum SEMIA 5080. The experiment can be described thus: Liquid inoculant survivability in the presence of benzyl hemi-formal (Example 4). Format: cell-based, Bradyrhizobium japonicum. The conditions noted are these: at the concentration tested; Table 8. As to the method:
as §2
as §3, with “japonicum” for “elkani”, “5079” for “587”, “5080” for “5019”, “CellTech HC,” for “Optimize II,”
as §4

Consider `N[C@@H](Cc1c[nH]c2ccccc12)C(=O)O` [tryptophan], for which the “Effect on the deleterious effects induced by benzyl hemi-formal containing agrochemical on a microbial population (in words)” value in experiment [1] and in experiment [2] was “reduce the deleterious effects” throughout.

albumin: the “Effect on the deleterious effects induced by benzyl hemi-formal (in words)” value in experiment [3] and in experiment [4] was “reduce the deleterious effects” in each case.
